Measured values reported in patent US5985908A, “MCBI analogs of CC-1065 and the duocarmycins” (The Scripps Research Institute, priority 1998, dated 1999).

Columns and labels:
[1] = test system: w794 DNA (SV40 DNA fragment, 144 bp); experiment: DNA alkylation, thermally-induced strand cleavage of w794 DNA; assay type: biochemical; settings: for selectivity and efficiency of DNA alkylation, natural enantiomers compared: 25° C., 24 hours, 254 vs 2, 266 vs 1; for concentration of detectable DNA alkylation, natural enantiomers: w794, 25° C., 24 hours (FIG. 17); for concentration of detectable DNA alkylation, unnatural enantiomers: 72 hours (FIG. 13)
Experimental: FIG. 13 illustrates thermally-induced strand cleavage of double-stranded DNA (SV40 DNA fragment, 144 bp, nucleotide no. 5238-138, clone w794) after 72 hours incubation of agent-DNA at 37° C. followed by removal of unbound agent and 30 minutes incubation at 100° C.; 8% denaturing PAGE and autoradiography. Lane 1, control DNA; lanes 2-4, (-)-MCBI-TMI (254, 1×10^-5 to 1×10^-7 M); lanes 5-7, (-)-duocarmycin SA (2, 1×10^-5 to 1×10^-7 M); lanes 8-11, Sanger G, C, A and T reactions; lanes 12-14, (-)-CC-1065 (1, 1×10^-5 to 1×10^-7 M); lanes 15-17, (-)-MCBI-CDPI2 (266, 1×10^-5 to 1×10^-7 M); lanes 18-20, (-)-MCBI-CDPI1 (262, 1×10^-5 to 1×10^-7 M); lanes 21-23 (-)-MCBI-indole2 (258, 1×10^-5 to 1×10^-7 M).
As indicated, the DNA-agent incubation was conducted at 37° C. for 24 or 48 hours, followed by removal of unbound agent and 30 minutes incubation at 100° C.; 8% denaturing PAGE and autoradiography.
FIG. 17 illustrates thermally-induced strand cleavage of double-stranded DNA (SV40 DNA fragment, 144 bp, nucleotide no. 5238-138, clone w794) after 24 hours incubation of agent-DNA at 25° C. followed by removal of unbound agent and 30 minutes incubation at 100° C; 8% denaturing PAGE and autoradiography. Lane 1, control DNA; lanes 2-4, (+)-duocarmycin SA (2, 1×10^-5 to 1×10^-7 M); lanes 5-7, (+)-MCBI-TMI (254, 1×10^-5 to 1×10^-7 M); lanes 8-11, Sanger G, C, A and T reactions; lanes 12-14, (+)-CC-1065 (1, 1×10^-5 to 1×10^-7 M); lanes 15-17, (+)-MCBI-indole2 (258, 1×10^-5 to 1×10^-7 M); lanes 18-20, (+)-MCBI-CDPI2 (266, 1×10^-5 to 1×10^-7 M).
(§1) The DNA alkylation properties of the agents were examined within four 150 base-pair segments of duplex DNA for which comparative results are available for related agents. Four clones of phage M13mp10 were selected for study and contain the SV40 nucleosomal DNA inserts w794 (nucleotide no. 5238-138) and its complement w836 (nucleotide no. 5189-91) and c988 (nucleotide no. 4359-4210) and its complement c820 (nucleotide no. 4201-4356). The alkylation site identification and the assessment of the relative selectivity among the available sites were obtained by thermally-induced strand cleavage of the singly 5'end-labeled duplex DNA after exposure to the agents. Following treatment of the end-labeled duplex DNA with a range of agent concentrations, the unbound agent was removed by EtOH precipitation of the DNA. Redissolution of the DNA in aqueous buffer, thermolysis (100° C., 30 minutes) to induce strand cleavage at the sites of DNA alkylation, denaturing high resolution polyacrylamide gel electrophoresis (PAGE) adjacent to Sanger dideoxynucleotide sequencing standards, and autoradiography led to identification of the DNA cleavage and alkylation sites. The full details of this procedure have been disclosed and discussed elsewhere (10). The DNA alkylation reaction selectivities observed under the incubation conditions of 25° C. (24 hours) for the agents detailed herein have proven identical to the alkylation selectivities observed with shorter or extended reaction periods or when the reactions were conducted at different temperatures (37 or 4° C., 0.5-7 days). As discussed below, the rates and efficiencies but not final relative efficiencies of DNA alkylation were altered by changing the reaction temperatures.

[2] = test system: duplex DNA (w794, w836, c988, c820); experiment: DNA alkylation selectivity within four 150 base-pair segments of duplex DNA; assay type: biochemical, SV40
Description: as §1

[3] = test system: w794 5'-AATTA high affinity site; experiment: Relative rate of w794 alkylation at the 5'-AATTA high-affinity site; assay type: biochemical, SV40; settings: 10^-6 M; for relative rate of DNA alkylation k(254):k(CBI-TMI):k(2): 4° C., 0-48 hours
Experimental: FIG. 15 illustrates a plot of percent integrated optical density (% IOD) versus time established through autoradiography of 5'-^32 P and labeled DNA and used to monitor the relative rate of w794 alkylation at the 5'-AATTA high-affinity site for 1, 254, 258, (+)-CBI-TMI and (+)-DSA-indole2.
Representative of this difficulty in detecting distinguishing relative rates for the three classes of agents, a similar rate comparison of (+)-DSA-indole2 and (+)-MCBI-indole2 (258) conducted at 25° C. […] In sharp contrast, all three kinetically alkylate DNA much faster than the corresponding CPI-based agent (10-50×) where the distinctions are much more pronounced and easily experimentally distinguished.

L1210 = experiment: In vitro cytotoxic activity; assay type: cell-based; settings: for cytotoxic potency of natural enantiomer relative to unnatural enantiomer: fold, natural more potent than unnatural; for enantiomer distinction (in words): natural vs unnatural enantiomer
[4] = test system: w794 DNA (SV40 DNA fragment, 144 bp); settings: cited from earlier work
[5] = Solvolysis reactivity (UV), aqueous buffer-CH3OH; assay type: physicochemical
Experimental: The solvolysis was followed spectrophotometrically by UV with the disappearance of the long-wavelength absorption band of the MCBI chromophore ([…]) and with the appearance of a short-wavelength absorption band (266 nm) attributable to seco-N-BOC-MCBI (FIG. 9).
N-BOC-MCBI (238, 0.1 mg) was dissolved in CH3 OH (1.5 mL) and mixed with pH 3 aqueous buffer (1.5 mL). The buffer contained 4:1:20 (v:v:v) 0.1 M citric acid, 0.2 M Na2 HPO4, and H2 O, respectively. The solvolysis solution was sealed and kept at 25° C. protected from light. The UV spectrum was measured at regular intervals every 2 hours during the first day, every 12 hours for another week, and every 24 hours for an additional week. The decrease in the long-wavelength absorption at 324 nm and the increase in the short-wavelength absorption at 266 nm were monitored, FIG. 1.
Similarly, MCBI (240, 0.1 mg) was dissolved in CH3 OH (1.5 mL) and mixed with […] (1.5 mL). The solvolysis solution was sealed and stirred at 25° C. in the dark. The UV spectrum was recorded every 24 hours for two months. The decrease in the long-wavelength absorption at 340 nm and the increase in absorption at 268 nm were monitored, FIG. 1.

[6] = Solvolysis reactivity (UV), aqueous buffer-CH3OH; assay type: physicochemical; settings: pH 7, 1:1 H2O-CH3OH

## COC(=O)c1cc2c([nH]1)C(=O)C=C1N(C(=O)c3cc4cc(OC)c(OC)c(OC)c4[nH]3)CC3CC123 (single isomer, unassigned; (+)) [(+)-duocarmycin SA, reference compound]
[1]
  selectivity and efficiency of DNA alkylation, natural enantiomers compared: indistinguishable
  concentration of detectable DNA alkylation, natural enantiomers: 10^-6 to 10^-7 M
[1]; w794, 37° C.
  concentration of detectable DNA alkylation, unnatural enantiomers: 10^-5 M
[2]
  AT-rich alkylation selectivity, size of site, natural enantiomers: 3.5 base-pair
[3]
  relative rate of DNA alkylation k(254):k(CBI-TMI):k(2): 0.9

## COc1cc2cc(C(=O)N3C[C@H]4C[C@@]45C3=CC(=O)c3ccccc35)[nH]c2c(OC)c1OC [(+)-CBI-TMI]
[3]
  relative rate of DNA alkylation k(254):k(CBI-TMI):k(2): 1.0

## COc1c(O)c2c(c3cc(C(=O)N4CCc5c4c(O)c(OC)c4[nH]c(C(=O)N6C[C@H]7C[C@@]78C6=CC(=O)c6[nH]cc(C)c68)cc54)[nH]c13)CCN2C(N)=O [(+)-CC-1065, reference compound]
[1]
  selectivity and efficiency of DNA alkylation, natural enantiomers compared: essentially indistinguishable
  concentration of detectable DNA alkylation, natural enantiomers: 10^-7 M
[2]
  AT-rich alkylation selectivity, size of site, natural enantiomers: 5 base-pair

## COC(=O)c1cc2c([nH]1)C(=O)C=C1N(C(=O)c3cc4cc(NC(=O)c5cc6ccccc6[nH]5)ccc4[nH]3)C[C@H]3C[C@]123 [(+)-DSA-indole2]
[3]; 25° C., 0-24 hours
  relative rate k(DSA-indole2)/k(MCBI-indole2): 1.05

## COc1ccc2c(c1)[C@@]13C[C@@H]1CN(C(=O)c1cc4cc(OC)c(OC)c(OC)c4[nH]1)C3=CC2=O [(+)-MCBI-TMI]
[1]
  selectivity and efficiency of DNA alkylation, natural enantiomers compared: indistinguishable
  concentration of detectable DNA alkylation, natural enantiomers: 10^-6 to 10^-7 M
L1210
  cytotoxic potency of natural enantiomer relative to unnatural enantiomer: 50 ×
[3]
  relative rate of DNA alkylation k(254):k(CBI-TMI):k(2): 1.8

## CC(C)(C)OC(=O)N1C[C@H]2C[C@@]23C1=CC(=O)c1ccccc13 [(+)-N-BOC-CBI]
[4]; (+)-N-BOC-CBI/ent-(-)-N-BOC-CBI
  relative efficiency of DNA alkylation, natural/unnatural enantiomer (earlier agent): 5-10 ×

## COc1cc2cc(C(=O)N3C[C@@H]4C[C@]45C3=CC(=O)c3ccccc35)[nH]c2c(OC)c1OC [(-)-CBI-TMI]
[4]; prior comparison
  DNA alkylation distinction between (-)-CBI-TMI and ent-(-)-duocarmycin SA: 10 ×

## COc1ccc2c(c1)C13CC1CN(C(=O)OC(C)(C)C)C3=CC2=O (stereo not shown) [Compound 238, N-(tert-Butyloxycarbonyl)-7-methoxy-1,2,9,9a-tetrahydrocyclopropa[c]benz[e]indol-4-one]
[1]; both enantiomers, two base-pair AT-rich selectivity
  alkylation selectivity of N-BOC-MCBI: 5'-AA>5'-TA
[1]; fold less efficient, both enantiomers
  DNA alkylation efficiency relative to 257-266: 10^4 ×
[1]; w794, 37° C., 24-48 hours (FIG. 16)
  concentration of detectable DNA alkylation, two enantiomers of N-BOC-MCBI: 10^-2 to 10^-3 M
[5]; acid-catalyzed solvolysis, pH 3
  acceleration of rate of solvolysis by C7 methoxy group vs. corresponding CBI agent: 1.6 ×
[5]; pH 3
  half-life relative to parent agent N-BOC-CBI (4): 0.6 times
[5]; pH 3, 50% CH3OH-buffer, 25° C.
  solvolysis rate constant k: 2.41e-06 s⁻¹
[5]; pH 3, 50% CH3OH-buffer, 25° C., read-out: solvolysis half-life t1/2 (converted)
  half-life: 80 h
[6]
  evidence of solvolysis at pH 7: did not show evidence of solvolysis

## COc1ccc2c(c1)C13CC1CN(C(=O)c1cc4cc(OC)c(OC)c(OC)c4[nH]1)C3=CC2=O (stereo not shown) [Compound 254]
[1]; w794, 37° C.
  concentration of detectable DNA alkylation, unnatural enantiomers: 10^-5 M
[2]
  AT-rich alkylation selectivity, size of site, natural enantiomers: 3.5 base-pair
L1210; listed as MCBI-TMI
  enantiomer distinction (in words): analogous distinctions but somewhat smaller than those observed with CBI-TMI

## COc1ccc2c(c1)C13CC1CN(C(=O)c1cc4c5c(ccc4[nH]1)N(C(N)=O)CC5)C3=CC2=O (stereo not shown) [Compound 262]
[2]
  AT-rich alkylation selectivity, size of site, natural enantiomers: 3.5 base-pair
L1210
  cytotoxic potency of natural enantiomer relative to unnatural enantiomer: 1-3 ×
  enantiomer distinction (in words): essentially indistinguishable
L1210; listed as MCBI-CDPI1
  enantiomer distinction (in words): nearly equipotent
